Patent publication US20230106032A1, “IMIDAZOTRIAZINES ACTING ON CANCER VIA INHIBITION OF CDK12” (Bayer Aktiengesellschaft, priority 2020, published 2023)

Legend:
CDK12/CycK = target: T1, CDK12/CycK (Homo sapiens, UniProt Q9NYV4); experiment: CDK12/CycK high ATP kinase assay (TR-FRET, 2 mM ATP); type: biochemical; settings: read-out: CDK12/CyclinK, 2 mM ATP (high ATP), IC50-[mol/l] (median)
T1 construct: His-CDK12 (aa Q696-S1082); made in house; host or cells: Hi-5 insect cells (baculovirus co-infection with CAK1)
T1 sequence (Q9NYV4 with tags, fused parts or gaps): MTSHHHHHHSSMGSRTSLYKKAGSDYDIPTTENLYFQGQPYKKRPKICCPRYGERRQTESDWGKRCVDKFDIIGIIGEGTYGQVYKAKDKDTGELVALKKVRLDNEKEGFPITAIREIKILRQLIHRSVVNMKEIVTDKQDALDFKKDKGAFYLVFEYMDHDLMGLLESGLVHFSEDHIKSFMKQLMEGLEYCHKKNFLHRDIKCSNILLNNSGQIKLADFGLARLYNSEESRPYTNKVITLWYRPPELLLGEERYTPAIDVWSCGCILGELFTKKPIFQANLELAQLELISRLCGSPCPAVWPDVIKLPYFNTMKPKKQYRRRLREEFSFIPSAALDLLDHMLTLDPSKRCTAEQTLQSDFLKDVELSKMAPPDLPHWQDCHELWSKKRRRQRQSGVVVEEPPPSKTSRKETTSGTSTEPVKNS
T1 sequence (O75909 with tags, fused parts or gaps partner limits assumed): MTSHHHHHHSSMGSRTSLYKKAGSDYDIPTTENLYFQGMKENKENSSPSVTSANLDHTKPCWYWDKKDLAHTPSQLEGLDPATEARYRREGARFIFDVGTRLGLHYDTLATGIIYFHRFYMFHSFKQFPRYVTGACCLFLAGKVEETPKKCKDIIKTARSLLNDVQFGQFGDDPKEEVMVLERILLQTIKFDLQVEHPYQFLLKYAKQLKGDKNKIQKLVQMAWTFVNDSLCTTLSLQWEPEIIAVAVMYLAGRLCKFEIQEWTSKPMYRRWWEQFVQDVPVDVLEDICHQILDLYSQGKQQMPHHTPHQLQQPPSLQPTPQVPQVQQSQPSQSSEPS
From the text: In the context of the present invention, the term “IC50 CDK12 hATP” refers to the IC50 values obtained according to the assay described in this section (2.2) herein below, i.e. the IC50 values for the inhibition of CDK12 at high ATP.
CDK12/CycK-inhibitory activity of compounds of the present invention at 2 millimol/L adenosine-tri-phosphate (ATP) was quantified employing the TR-FRET (TR-FRET=Time Resolved Fluorescence Energy Transfer) based CDK12/CycK activity inhibition assay as described in the following paragraphs.
A complex of human recombinant CDK12 and human recombinant CycK (both N-terminally His-tagged, expression and purification as described above) was used as enzyme. As substrate for the kinase reaction biotinylated peptide biotin-Ahx-KFELLPTPPLSPSRRSGL (C-terminus in amid form) was used which can be purchased e.g. form the company Biosyntan (Berlin-Buch, Germany).
For the assay 50 nanoL of a 100 fold concentrated solution of the test compound in DMSO was pipetted into either a black low volume 384 well microtiter plate or a black 1536 well microtiter plate (both Greiner Bio-One, Frickenhausen, Germany), 2 microL of a solution of CDK12/CycK in aqueous assay buffer [25 millimol/L HEPES pH 7.5, 20 millimol/L MgCl2, 5 millimol/L ß-glycerophosphate, 2 millimol/L EGTA, 1.0 millimol/L dithiothreitol, 0.01% (v/v) Nonidet-P40 (Sigma), 0.01% (w/v) bovine serum albumin] were added and the mixture was incubated for 15 min at 22° C. to allow pre-binding of the test compounds to the enzyme before the start of the kinase reaction. Then the kinase reaction was started by the addition of 3 microL of a solution ATP (3.33 millimol/L=> final conc. in the 5 microL assay volume is 2 millimol/L) and substrate (1.67 micromol/L=> final conc. in the 5 microL assay volume is 1 micromol/L) in assay buffer and the resulting mixture was incubated for a reaction time of 60 min at 22° C. The concentration of CDK12/CycK was adjusted depending of the activity of the enzyme lot and was chosen appropriate to have the assay in the linear range, typical concentrations were about 0.75 nanomol/L. The reaction was stopped by the addition of 3 microL of a solution of TR-FRET detection reagents (125 nanomol/L streptavidine-XL665 [Cisbio Bioassays, Codolet, France] and 0.67 nanomol/L anti-Phospho-c-Myc (Ser 62) (E1J4K)-antibody from Cell Signalling [#13748] and 2 nanomol/L LANCE EU-W1024 labeled anti-rabbit IgG antibody [Perkin-Elmer, product no. 0083]) in an aqueous EDTA-solution (133 millimol/L EDTA, 0.27% (w/v) bovine serum albumin in 66.7 millimol/L HEPES pH 7.5).
(§1) The resulting mixture was incubated 1 h at 22° C. to allow the formation of complex between the phosphorylated biotinylated peptide and the detection reagents. Subsequently the amount of phosphorylated substrate was evaluated by measurement of the resonance energy transfer from the Eu-chelate to the streptavidine-XL. Therefore, the fluorescence emissions at 620 nm and 665 nm after excitation at 350 nm was measured in a TR-FRET reader, e.g. a Pherastar FS (BMG Labtechnologies, Offenburg, Germany) or a Viewlux (Perkin-Elmer). The ratio of the emissions at 665 nm and at […] was taken as the measure for the amount of phosphorylated substrate. The data were normalised (enzyme reaction without inhibitor=0% inhibition, all other assay components but no enzyme=100% inhibition).

CDK9/CycT1 = target: T2, CDK9/CycT1 (Homo sapiens, UniProt P50750); experiment: CDK9/CycT1 high ATP kinase assay (TR-FRET, 2 mM ATP); type: biochemical; settings: read-out: CDK9/CyclinT1, 2 mM ATP (high ATP) IC50-[mol/l] (median)
T2 construct: Recombinant full-length His-tagged human CDK9 and CycT1, expressed in insect cells; His; purchased Life Technologies PV4131; host or cells: insect cells
T2 sequence (P50750 whole entry): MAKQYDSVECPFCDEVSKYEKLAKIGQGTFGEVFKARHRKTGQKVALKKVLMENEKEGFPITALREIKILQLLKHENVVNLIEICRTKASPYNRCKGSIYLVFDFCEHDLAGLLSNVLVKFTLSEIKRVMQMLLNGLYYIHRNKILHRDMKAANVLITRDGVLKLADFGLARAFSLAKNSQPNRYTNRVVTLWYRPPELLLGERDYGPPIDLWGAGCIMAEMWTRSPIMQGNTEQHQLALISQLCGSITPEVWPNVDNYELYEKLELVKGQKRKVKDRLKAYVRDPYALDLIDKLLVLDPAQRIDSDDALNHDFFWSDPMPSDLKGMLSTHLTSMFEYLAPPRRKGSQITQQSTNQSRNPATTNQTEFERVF
T2 sequence (O60563 whole entry partner): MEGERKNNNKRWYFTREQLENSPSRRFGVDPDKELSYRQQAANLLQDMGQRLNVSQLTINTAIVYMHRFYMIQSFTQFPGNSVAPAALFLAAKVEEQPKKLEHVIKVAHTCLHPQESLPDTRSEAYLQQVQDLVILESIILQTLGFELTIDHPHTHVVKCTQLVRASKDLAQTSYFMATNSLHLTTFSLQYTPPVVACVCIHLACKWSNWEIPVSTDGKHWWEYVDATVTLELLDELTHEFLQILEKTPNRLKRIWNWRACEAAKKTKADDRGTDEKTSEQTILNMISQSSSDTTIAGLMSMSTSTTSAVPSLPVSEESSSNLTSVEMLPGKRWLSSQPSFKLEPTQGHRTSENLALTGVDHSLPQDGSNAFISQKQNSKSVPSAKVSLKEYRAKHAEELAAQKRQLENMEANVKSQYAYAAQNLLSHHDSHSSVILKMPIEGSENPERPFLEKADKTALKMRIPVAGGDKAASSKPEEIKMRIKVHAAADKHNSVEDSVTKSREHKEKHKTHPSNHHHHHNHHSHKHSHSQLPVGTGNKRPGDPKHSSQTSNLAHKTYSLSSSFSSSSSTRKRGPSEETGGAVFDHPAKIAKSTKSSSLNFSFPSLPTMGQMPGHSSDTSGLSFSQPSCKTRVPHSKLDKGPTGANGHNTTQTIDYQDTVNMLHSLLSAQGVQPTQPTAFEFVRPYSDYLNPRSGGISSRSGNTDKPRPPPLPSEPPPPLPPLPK
Method: CDK9/CycT1-inhibitory activity of compounds of the present invention at a high ATP concentration after preincubation of enzyme and test compounds was quantified employing the CDK9/CycT1 TR-FRET assay as described in the following paragraphs.
Recombinant full-length His-tagged human CDK9 and CycT1, expressed in insect cells and purified by Ni-NTA affinity chromatography, were purchased from Life Technologies (Cat. No PV4131). As substrate for the kinase reaction biotinylated peptide biotin-Ttds-YISPLKSPYKISEG (C-terminus in amide form) was used which can be purchased e.g. form the company JERINI peptide technologies (Berlin, Germany).
For the assay 50 nanoL of a 100 fold concentrated solution of the test compound in DMSO was pipetted into either a black low volume 384 well microtiter plate or a black 1536 well microtiter plate (both Greiner Bio-One, Frickenhausen, Germany), 2 microL of a solution of CDK9/CycT1 in aqueous assay buffer [50 millimol/L Tris/HCl pH 8.0, 10 millimol/L MgCl2, 1.0 millimol/L dithiothreitol, 0.1 millimol/L sodium ortho-vanadate, 0.01% (v/v) Nonidet-P40 (Sigma)] were added and the mixture was incubated for 15 min at 22° C. to allow pre-binding of the test compounds to the enzyme before the start of the kinase reaction. Then the kinase reaction was started by the addition of 3 microL of a solution of adenosine-tri-phosphate (ATP, 3.3 millimol/L=> final conc. in the 5 microL assay volume is 2 millimol/L) and substrate (1.25 micromol/L=> final conc. in the 5 microL assay volume is 0.75 micromol/L) in assay buffer and the resulting mixture was incubated for a reaction time of 25 min at 22° C. The concentration of CDK9/CycT1 was adjusted depending of the activity of the enzyme lot and was chosen appropriate to have the assay in the linear range, typical concentrations were in the range of 0.5 microg/ml. The reaction was stopped by the addition of 3 microL of a solution of TR-FRET detection reagents (0.33 micromol/L streptavidine-XL665 [Cisbio Bioassays, Codolet, France] and 1.67 nanomol/L anti-RB(pSer807/pSer8l 1)-antibody from BD Pharmingen [#558389] and 2 nanomol/L LANCE EU-W1024 labeled anti-mouse IgG antibody [Perkin-Elmer, product no. AD0077]) in an aqueous EDTA-solution (167 millimol/L EDTA, 0.2% (w/v) bovine serum albumin in 100 millimol/L HEPES pH 7.5).
as §1, with “Pherastar” for “Pherastar FS”

Row | SMILES | IC50 (CDK12/CycK) [µM] | IC50 (CDK9/CycT1) [µM]
1 | CN1CCN(c2nc(NCc3nc4c(F)cccc4[nH]3)c3ncc(Br)n3n2)CC1 [Example 23, 7-bromo-N-[(4-fluoro-1H-benzimidazol-2-yl)methyl]-2-(4-methylpiperazin-1-yl)imidazo[2,1-f][1,2,4]triazin-4-amine] | 10.8 | > 20
2 | FC(F)(F)c1cnc2c(NCc3nc4ccccc4[nH]3)nc(N3CCOCC3)nn12 [Example 26, N-[(1H-benzimidazol-2-yl)methyl]-2-(morpholin-4-yl)-7-(trifluoromethyl)imidazo[2,1-f][1,2,4]triazin-4-amine] | 0.172 | > 20
3 | C[C@@H]1CN(c2nc(NCc3nc4c(F)c(F)ccc4[nH]3)c3ncc(Br)n3n2)C[C@H](C)N1 [Example 11, 7-bromo-N-[(4,5-difluoro-1H-benzimidazol-2-yl)methyl]-2-[rel-(3R,5S)-3,5-dimethylpiperazin-1-yl]imidazo[2,1-f][1,2,4]triazin-4-amine] | 0.579 | 10.8
4 | Fc1ccc2[nH]c(CNc3nc(N4CCOCC4)nn4c(Br)cnc34)nc2c1F [Example 7, 7-bromo-N-[(4,5-difluoro-1H-benzimidazol-2-yl)methyl]-2-(morpholin-4-yl)imidazo[2,1-f][1,2,4]triazin-4-amine] | 1.26 | 9.06
5 | C[C@@H]1CN(c2nc(NCc3nc4c(F)c(F)ccc4[nH]3)c3ncc(Br)n3n2)C[C@H](C)O1 [Example 5, 7-bromo-N-[(4,5-difluoro-1H-benzimidazol-2-yl)methyl]-2-[rel-(2R,6S)-2,6-dimethylmorpholin-4-yl]imidazo[2,1-f][1,2,4]triazin-4-amine] | 0.137 | 3.47
6 | COc1cccc2[nH]c(CNc3nc(N4CCOCC4)nn4c(Br)cnc34)nc12 [Example 13, 7-bromo-N-[(4-methoxy-1H-benzimidazol-2-yl)methyl]-2-(morpholin-4-yl)imidazo[2,1-f][1,2,4]triazin-4-amine] | 1.33 | > 18.9
7 | C[C@@H]1CN(c2nc(NCc3nc4ccccc4[nH]3)c3ncc(Br)n3n2)C[C@H](C)N1 [Example 9, N-[(1H-benzimidazol-2-yl)methyl]-7-bromo-2-[rel-(3R,5S)-3,5-dimethylpiperazin-1-yl]imidazo[2,1-f][1,2,4]triazin-4-amine] | 4.9 | > 20
8 | Fc1ccc2[nH]c(CNc3nc(N4CCOCC4)nn4c(Br)cnc34)nc2c1 [Example 20, 7-bromo-N-[(5-fluoro-1H-benzimidazol-2-yl)methyl]-2-(morpholin-4-yl)imidazo[2,1-f][1,2,4]triazin-4-amine] | 3.46 | > 20
9 | COc1cccc2[nH]c(CNc3nc(N4CCN(C)CC4)nn4c(Br)cnc34)nc12.O=CO [Example 16, 7-bromo-N-[(4-methoxy-1H-benzimidazol-2-yl)methyl]-2-(4-methylpiperazin-1-yl)imidazo[2,1-f][1,2,4]triazin-4-amine Formate (1/1)] | 6.29 | > 20
10 | Brc1cnc2c(NCc3nc4ccccc4[nH]3)nc(N3CCOCC3)nn12 [Example 1, N-[(1H-benzimidazol-2-yl)methyl]-7-bromo-2-(morpholin-4-yl)imidazo[2,1-f][1,2,4]triazin-4-amine] | 5.11 | > 20
11 | N#Cc1cnc2c(NCc3nc4ccccc4[nH]3)nc(N3CCOCC3)nn12 [Example 2, 4-{[(1H-benzimidazol-2-yl)methyl]amino}-2-(morpholin-4-yl)imidazo[2,1-f][1,2,4]triazine-7-carbonitrile] | 6.98 | > 20
12 | C[C@@H]1CN(c2nc(NCc3nc4ccccc4[nH]3)c3ncc(C(F)(F)F)n3n2)C[C@H](C)N1.O=CO [Example 24, N-[(1H-benzimidazol-2-yl)methyl]-2-[rel-(3R,5S)-3,5-dimethylpiperazin-1-yl]-7-(trifluoromethyl)imidazo[2,1-f][1,2,4]triazin-4-amine Formate (1/1)] | 0.737 | > 20
13 | CN1CCN(c2nc(NCc3nc4c(F)c(F)ccc4[nH]3)c3ncc(C(F)(F)F)n3n2)CC1 [Example 28, N-[(4,5-difluoro-1H-benzimidazol-2-yl)methyl]-2-(4-methylpiperazin-1-yl)-7-(trifluoromethyl)imidazo[2,1-f][1,2,4]triazin-4-amine] | 1.68 | > 20
14 | CN(CC(C)(C)O)c1nc(NCc2nc3ccccc3[nH]2)c2ncc(C(F)(F)F)n2n1 [Example 30, 1-[{4-[(1H-benzimidazol-2-ylmethyl)amino]-7-(trifluoromethyl)imidazo[2,1-f][1,2,4]triazin-2-yl}(methyl)amino]-2-methylpropan-2-ol] | 0.163 | 10.8
